Experimental data reported in patent US6509369B2, “Anti-inflammatory compounds” (Ortho-McNeil Pharmaceutical, Inc., priority 1997, dated 2003).

What was measured:
[1] = test system: human progesterone receptor (hPR); test: human progesterone receptor binding assay (displacement of 3(H) R5020 Promegestone)
Protocol: A human progesterone receptor binding assay was performed in order to determine selectivity of the compounds, as follows. Human progesterone receptors were prepared from either insect cells (SF21) infected with baculovirus hPR A, or from a breast cancer cell line, T47D, which expresses high levels of endogenous hPR. The receptor binding reactions, with or without test compounds, were set up in 96-well microtiter plates which were previously siliconized with SIGMACOTE. The binding components, 3(H) R5020 Promegestone, a high affinity ligand for the progesterone receptors, glycerol/molybdate-containing buffer and unlabeled compounds were added to the wells using a combination of BIOMEK laboratory automation system and repeat pipettes. After overnight incubation, the samples were precipitated with polyethylene glycol and filtered through Whatman GF/F paper using a TOMTEK cell harvester. The filter mate with 96 samples were bound to a solid-phase scintillant and directly counted in the BETAPLATE counter. Only those compounds that were active in the human glucocorticoid receptor assay set forth in Example 30 were used for progesterone receptor binding to determine cross-reactivity profiles, if any. The activity of test compounds to displace 3(H) R5020 binding to hPR is expressed as percent inhibition at the two concentrations, 10^−6 and 10^−5 Molar.

[2] = target: T1, human glucocorticoid receptor (hGR) (Homo sapiens, UniProt P04150); test: human glucocorticoid receptor binding assay (displacement of 3(H) Triamcinolone acetonide); details: for hGR, value given as %: concentration not given
T1 construct: made in house; host or cells: Sf21 insect cells infected with baculovirus hGR, OR IM9 lymphoblast cell line (endogenous hGR)
T1 sequence (P04150 1-777): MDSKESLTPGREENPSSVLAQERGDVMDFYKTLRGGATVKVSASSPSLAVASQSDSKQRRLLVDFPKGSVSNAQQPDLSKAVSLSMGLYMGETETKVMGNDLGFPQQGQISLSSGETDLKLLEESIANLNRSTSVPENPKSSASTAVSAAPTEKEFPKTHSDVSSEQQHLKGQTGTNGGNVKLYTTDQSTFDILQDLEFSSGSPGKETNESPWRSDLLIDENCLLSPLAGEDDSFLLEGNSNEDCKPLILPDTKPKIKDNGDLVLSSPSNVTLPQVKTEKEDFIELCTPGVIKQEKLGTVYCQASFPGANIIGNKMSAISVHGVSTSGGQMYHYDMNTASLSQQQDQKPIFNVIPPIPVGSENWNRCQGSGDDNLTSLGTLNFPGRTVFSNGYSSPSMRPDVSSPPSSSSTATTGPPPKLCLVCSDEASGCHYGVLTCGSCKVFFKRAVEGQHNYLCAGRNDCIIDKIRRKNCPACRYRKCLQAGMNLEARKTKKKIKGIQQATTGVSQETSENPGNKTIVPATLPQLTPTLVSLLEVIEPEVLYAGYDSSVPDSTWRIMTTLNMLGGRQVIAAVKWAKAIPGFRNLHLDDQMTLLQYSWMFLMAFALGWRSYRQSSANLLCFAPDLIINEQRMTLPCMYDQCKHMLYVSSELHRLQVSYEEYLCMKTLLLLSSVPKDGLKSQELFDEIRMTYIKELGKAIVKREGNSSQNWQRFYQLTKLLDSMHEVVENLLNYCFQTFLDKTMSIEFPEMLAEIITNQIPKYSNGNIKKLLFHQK
Protocol: A human glucocorticoid receptor binding assay was carried out to determine the extent to which the compounds of this invention have the ability to bind to human glucocorticoid receptors. This binding ability may be indicative of the antiinflammatory activity of the compound. The test was carried out as follows.
Human glucocorticoid receptors were prepared from either insect cells (Sf21) infected with baculovirus hGR or from a lymphoblast cell line which expresses high levels of endogenous hGR (IM9). The receptor binding reactions, with or without test compounds, were set up in 96-well microtiter plates which were previously siliconized with SIGMACOTE™, a chlorinated organopolysiloxane in heptane. The binding components, 3(H) Triamcinolone acetonide (TAA), glycerol/molybdate-containing buffer and unlabeled compounds were added to the wells using a combination of BIOMEK laboratory automation system and repeat pipettes. After four hours of incubation, the samples were precipitated with polyethylene glycol and filtered through Whatman GF/F paper using a TOMTEK cell harvester. The filter mate with 96 samples were bound to a solid-phase scintillant and directly counted in a BETAPLATE counter. […] The activity of test compounds to displace 3(H) TAA binding to hGR is also expressed as percent inhibition at 1 μM.

[3] = test system: oxazolone-induced ear swelling (MOCH) in albino male CD-1 mice; test: mouse oxazolone-induced contact hypersensitization (MOCH) ear swelling; assay type: in vivo; details: for topical antiinflammatory activity in the oxazolone model (in words): mouse ear; for Oxazolone Ear Swelling (MOCH) % inhibition vs. Vehicle at 1 mg: topical to mouse ear, one hour after oxazolone challenge, ear biopsy weight at 24 hours
Protocol: Several triphenylpropanamide compounds of this invention, having varying affinities for the human glucocorticoid receptor, were tested for topical antiinflammatory activity in mouse ear inflammation models. […] Compounds having receptor affinities closer to hydrocortisone were as nearly active as hydrocortisone in suppressing mouse oxazolone-induced contact hypersensitization (MOCH) and phorbol ester-induced ear edema. The in vivo studies of this example were conducted as follows.
In determining the MOCH using the compounds of this invention, albino male CD-1 mice, 7-9 weeks old were induced on the shaved abdomen with 50 μl of 3% oxazolone in acetone/corn oil (Day 0). On Day 5, a 20 μl volume of 2% oxazolone in acetone was applied to the dorsal left ear of the mouse . Compounds (made in ethanol/propylene glycol, 70:30) were applied to the left ear in 20 μl volume, one hour after oxazolone challenge. The right ear was not treated. The mice were sacrificed by carbon dioxide inhalation 24 hours after oxazolone challenge, the left and right ears were removed and a 7 mm biopsy was removed from each ear and weighed. The difference in biopsy weights between the right and left ears was calculated. Antiinflammatory effects of compounds were evident as an inhibition of the increase in ear weight.

hPR % inh 10 μM [1] [%]	IC50 [2] [nM]	hGR, value given as % [2] [%]	SMILES	topical antiinflammatory activity in the oxazolone model (in words) [3]	Oxazolone Ear Swelling (MOCH) % inhibition vs. Vehicle at 1 mg [3] [%]
19	605		O=C(CCc1c[nH]c2ccccc12)NCC(c1ccccc1)C(c1ccccc1)c1ccccc1 (centres unmarked) [Compound 48]		
16	820		O=C(Cc1cccs1)NCC(c1ccccc1)C1c2ccccc2-c2ccccc21 (centres unmarked) [Compound 71]		
	45		O=C(Cc1ccccc1Cl)NCC(c1ccccc1)C(c1ccc(F)cc1)c1ccc(F)cc1 (centres unmarked) [Compound 16]	moderate topical activity	
−11	955		O=C(Cc1ccccc1Cl)NCC1(c2ccccc2)CC1(c1ccccc1)c1ccccc1 (centres unmarked) [Compound 80, N-(2chlorophenyl)acetyl-1,2,2-triphenylcyclopropylmethylamine]		
12	528		Cc1ccc(CC(=O)NCC(c2ccccc2)C(c2ccccc2)c2ccccc2)cc1 (centres unmarked) [Compound 4]		
		15	O=C(Cc1ccccc1C(F)(F)F)NCC(c1ccccc1)C1c2ccccc2-c2ccccc21 (centres unmarked) [Compound 69]		43
22	570		O=C(Cc1ccsc1)NCC1(c2ccccc2)CC1(c1ccccc1)c1ccccc1 (centres unmarked) [Compound 89]		
18	888		O=C(Cc1ccccc1)NCC(c1ccccc1)C1c2ccccc2-c2ccccc21 (centres unmarked) [Compound 66]		
11	200		O=C(Cc1ccccn1)NCC(c1ccccc1)C(c1ccccc1)c1ccccc1 (centres unmarked) [Compound 49]		
		46	O=C(Cc1ccccc1Cl)NCC(c1ccccc1)C1c2ccccc2-c2ccccc21 (centres unmarked) [Compound 68]		28
6	1200		O=C(Cc1ccccc1)NCC1(c2ccccc2)CC1(c1ccccc1)c1ccccc1 (centres unmarked) [Compound 78]		
4	480		O=C(Cc1ccc(Cl)cc1)NCC(c1ccccc1)C(c1ccccc1)c1ccccc1 (centres unmarked) [Compound 3]		
3	340		O=C(Cc1c(Cl)cccc1Cl)NCC(c1ccccc1)C(c1ccccc1)c1ccccc1 (centres unmarked) [Compound 8]		
18	72		O=C(Cc1ccccc1)NCC(c1ccc(Cl)cc1)C(c1ccccc1)c1ccccc1 (centres unmarked) [Compound 14]		
9	58		COc1ccccc1CCC(=O)NCC(c1ccccc1)C(c1ccccc1)c1ccccc1 (centres unmarked) [Compound 20]		
24.5	1000		COc1ccc(CC(=O)NCC2(c3ccccc3)CC2(c2ccccc2)c2ccccc2)cc1OC (centres unmarked) [Compound 79]		
45	573		CCCC(=O)NCC1(c2ccccc2)CC1(c1ccccc1)c1ccccc1 (centres unmarked) [Compound 83]		
−20.4	510		O=C(NCC1(c2ccccc2)CC1(c1ccccc1)c1ccccc1)C(c1ccccc1)c1ccccc1 (centres unmarked) [Compound 82]		
19.8	681		CCCCC(=O)NCC1(c2ccccc2)CC1(c1ccccc1)c1ccccc1 (centres unmarked) [Compound 87]		

hPR % inh 10 μM [1] [%]	IC50 [2] [nM]	hGR, value given as % [2] [%]	SMILES	topical antiinflammatory activity in the oxazolone model (in words) [3]	Oxazolone Ear Swelling (MOCH) % inhibition vs. Vehicle at 1 mg [3] [%]
24	141		O=C(CCc1ccccc1)NCC(c1ccccc1)C(c1ccccc1)c1ccccc1 (centres unmarked) [Compound 19]		
15.3	612		CC(C)C(=O)NCC1(c2ccccc2)CC1(c1ccccc1)c1ccccc1 (centres unmarked) [Compound 84]		
14.1	610		O=C(Cc1ccccc1)NCC(c1ccccc1)C(c1ccc(F)cc1)c1ccc(F)cc1 (centres unmarked) [Compound 18, N-[3,3-bis-(4-fluorophenyl)-2-phenylpropyl]-2-phenylacetamide]		
18	68		O=C(NCC(c1ccccc1)C(c1ccccc1)c1ccccc1)c1ccsc1 (centres unmarked) [Compound 42]		
20	830		O=C(Cc1cccc(C(F)(F)F)c1)NCC(c1ccccc1)C(c1ccccc1)c1ccccc1 (centres unmarked) [Compound 11]		
17	416		O=C(Cc1c[nH]c2ccccc12)NCC(c1ccccc1)C(c1ccccc1)c1ccccc1 (centres unmarked) [Compound 47]		
		33	Cc1ccc(C(=O)NCC(c2ccccc2)C2c3ccccc3-c3ccccc32)s1 (centres unmarked) [Compound 72]		50
12.6	665		CC(C)(C)C(=O)NCC1(c2ccccc2)CC1(c1ccccc1)c1ccccc1 (centres unmarked) [Compound 86]		
22	151		O=S(=O)(NCC(c1ccccc1)C(c1ccccc1)c1ccccc1)c1cccs1 (centres unmarked) [Compound 40]		
−1	1490		O=C(NCC1(c2ccccc2)CC1(c1ccccc1)c1ccccc1)Nc1ccccc1 (centres unmarked) [Compound 92]		
11.6	910		COc1ccc(CC(=O)NCC(c2ccccc2)C(c2ccccc2)c2ccccc2)cc1OC (centres unmarked) [Compound 7]		
10	670		O=C(CCCc1ccccc1)NCC(c1ccccc1)C(c1ccccc1)c1ccccc1 (centres unmarked) [Compound 24]		
15	780		O=C(Cc1ccccc1C(F)(F)F)NCC(c1ccccc1)C(c1ccccc1)c1ccccc1 (centres unmarked) [Compound 10]		
17	21		O=C(Cc1cccs1)NCC(c1ccc(Cl)cc1)C(c1ccccc1)c1ccccc1 (centres unmarked) [Compound 34]		
	22		COc1ccccc1CCC(=O)NCC(c1ccccc1)C(c1ccc(F)cc1)c1ccc(F)cc1 (centres unmarked) [Compound 23]	moderate topical activity	
−23	134		O=C(Cc1ccccc1Cl)NCC(c1ccccc1)C(c1ccccc1)c1ccccc1 (centres unmarked) [Compound 2]		
5	31		O=C(NCC(c1ccccc1)C(c1ccccc1)c1ccccc1)c1cccs1 (centres unmarked) [Compound 45]		
15	1500		O=C(Cc1ccc(C(F)(F)F)cc1)NCC(c1ccccc1)C(c1ccccc1)c1ccccc1 (centres unmarked) [Compound 12]		
		62	COc1ccccc1CC(=O)NCC(c1ccccc1)C(c1ccccc1)c1ccccc1 (centres unmarked) [Compound 5]		13

SMILES	hPR % inh 10 μM [1] [%]	IC50 [2] [nM]	hGR, value given as % [2] [%]	topical antiinflammatory activity in the oxazolone model (in words) [3]	Oxazolone Ear Swelling (MOCH) % inhibition vs. Vehicle at 1 mg [3] [%]
O=C(NCC1(c2ccccc2)CC1(c1ccccc1)c1ccccc1)Oc1ccccc1 (centres unmarked) [Compound 96]	9.9	927			
O=C(NCC1(c2ccccc2)CC1(c1ccccc1)c1ccccc1)Oc1ccc(Cl)cc1 (centres unmarked) [Compound 97]	12.5	157			
